Test results published in publication PMC9698483, “Berbamine Reduces Chloroquine-Induced Itch in Mice through Inhibition of MrgprX1” (International Journal of Molecular Sciences, 2022).

Key:
[1] = test system: MrgprX1 or MrgprA3; parameters: method as in PMID 16510108, PMID 32536619; details: read-out: IC50 (potency as antagonist); cited from earlier work
[2] = test system: histamine-induced itch; parameters: method as in PMID 16510108, PMID 32536619, PMID 35066892; details: cited from earlier work
[3] = test system: CQ-induced itch; parameters: method as in PMID 16510108, PMID 32536619, PMID 35066892; details: cited from earlier work
[4] = target: T1, PAR2 (Homo sapiens, UniProt P55085); assay: PAR2-AP-induced activation of PAR2 in HT29 cells (calcium); assay type: cell-based; details: 30 μM compound, 10 min prior to 30 μM PAR2-AP
T1 construct: endogenous in cells; host or cells: HT29
T1 sequence (P55085 26-397): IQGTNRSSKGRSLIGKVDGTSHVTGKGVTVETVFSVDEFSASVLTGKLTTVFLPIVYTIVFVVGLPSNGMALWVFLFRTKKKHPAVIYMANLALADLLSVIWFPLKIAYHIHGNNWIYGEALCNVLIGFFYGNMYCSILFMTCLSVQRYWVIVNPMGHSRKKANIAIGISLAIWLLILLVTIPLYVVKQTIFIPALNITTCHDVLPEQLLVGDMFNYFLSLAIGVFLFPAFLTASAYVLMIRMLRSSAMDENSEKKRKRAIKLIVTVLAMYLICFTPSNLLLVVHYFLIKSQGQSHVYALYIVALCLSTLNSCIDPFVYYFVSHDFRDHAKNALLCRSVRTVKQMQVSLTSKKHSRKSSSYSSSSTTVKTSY
Experimental: (§1) To investigate the effect of berbamine on other pruritogenic GPCRs, we observed the effect of berbamine on histamine H1 receptor (H1R), histamine H4 receptor (H4R), MrgprC11, MrgprX4, PAR2, and TGR5.
(§2) Figure 3 Effects of berbamine on the activity of other pruritogenic GPCRs: (A,B) Effect of berbamine on histamine 1 receptor (H1R) and histamine 4 receptor (H4R). H1R- and H4R-expressing HEK293T cells were pretreated with 30 μM BBM for 10 min prior to 100 μM histamine treatment. […] (C) Effect of berbamine on PAR2. HT29 cells were pretreated with BBM for 10 min prior to 30 μM PAR2-AP treatment. […] (D) Effect of berbamine on MrgprC11. MrgprC11-expressing HEK293T cells were pretreated with BBM for 10 min prior to 100 μM […] treatment. (E) Effect of berbamine on MrgprX4. MrgprX4-expressing HEK293T cells were pretreated with BBM for 10 min prior to 80 μM DCA treatment. (F) Effect of berbamine on TGR5. TGR5 activity was measured using a YFP fluorescence quenching assay. CHO-K1 cells coexpressing TGR5 and a halide sensor YFP were pretreated with BBM and 80 μM DCA for 10 min prior to I^- treatment. Results were summarized as means ± S.E. (n = 6). NTC, nontransfected cells.
(§3) Intracellular calcium levels were measured using a Fluo-4 NW calcium assay kit (Invitrogen, Carlsbad, CA) as per the manufacturer’s protocol in HEK293T and HT29 cells. […]

[5] = test system: ERK1/2 phosphorylation through MrgprX1; assay: Immunoblot of ERK1/2 phosphorylation in HEK293T cells expressing MrgprX1; assay type: cell-based, human; details: HEK-MrgprX1 cells
[6] = test system: ERK1/2 phosphorylation through MrgprA3; assay: Immunoblot of ERK1/2 phosphorylation in HEK293T cells expressing MrgprA3; assay type: cell-based, mouse; details: HEK-MrgprA3 cells
[7] = target: T2, MrgprA3 (Mus musculus, UniProt Q91WW3); assay: Intracellular calcium measurement in HEK293T cells expressing mouse MrgprA3; assay type: cell-based; details: HEK293T cells overexpressing MrgprA3; read-out: EC50 of MrgprA3 activation
T2 construct: expressed in transfected cells; host or cells: HEK293T
T2 sequence (Q91WW3 1-302): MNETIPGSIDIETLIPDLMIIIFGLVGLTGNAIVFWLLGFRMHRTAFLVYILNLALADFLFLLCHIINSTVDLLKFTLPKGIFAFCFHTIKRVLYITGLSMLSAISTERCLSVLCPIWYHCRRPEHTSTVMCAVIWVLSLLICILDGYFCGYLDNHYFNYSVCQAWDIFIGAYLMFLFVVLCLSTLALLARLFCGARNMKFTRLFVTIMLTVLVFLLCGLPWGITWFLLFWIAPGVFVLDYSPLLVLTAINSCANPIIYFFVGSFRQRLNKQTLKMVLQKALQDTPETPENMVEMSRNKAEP
Experimental: MRGPRA3 and MRGPRC11 are mouse orthologs of human MRGPRX1, and MrgprA3 is also activated by CQ, resulting in CQ-induced pruritus. To investigate the inhibitory effect of berbamine on MrgprA3, we established HEK293T cells overexpressing MrgprA3. […] We further investigated whether berbamine inhibited CQ-induced ERK1/2 phosphorylation in HEK-MrgprA3 cells. Strong and significant ERK1/2 phosphorylation was observed following CQ application, and ERK1/2 phosphorylation peaked 5 min after CQ treatment (Figure 6A,B).
Figure 5 Effect of berbamine on CQ-induced activation of MrgprA3: (A) Intracellular calcium levels were measured in HEK293T cells expressing mouse MrgprA3. Cells were treated with indicated concentrations of CQ. (B) Summary of dose–response (mean ± S.E., n = 6). (C) Cells were pretreated with indicated concentrations of berbamine for 10 min prior to 300 μM CQ treatment. (D) Summary of dose-response (mean ± S.E., n = 6). (E) Representative traces of intracellular calcium responses to BAM8−22 in HEK293T cells expressing MrgprC11. […]
(§4) Intracellular calcium levels were measured using a Fluo-4 NW calcium assay kit (Invitrogen, Carlsbad, CA) as per the manufacturer’s protocol in HEK293T and HT29 cells. […] After 1 h of incubation, Fluo-4 fluorescence was recorded with a FLUOstar Omega microplate reader equipped with syringe pumps and custom Fluo-4 excitation/emission filters (485/538 nm). […]

[8] = target: T3, MrgprX1 (Homo sapiens, UniProt Q96LB2); assay: Intracellular calcium measurement (Fluo-4 NW) in HEK293T cells expressing MrgprX1; assay type: cell-based
T3 construct: expressed in transfected cells
T3 sequence (Q96LB2 whole entry): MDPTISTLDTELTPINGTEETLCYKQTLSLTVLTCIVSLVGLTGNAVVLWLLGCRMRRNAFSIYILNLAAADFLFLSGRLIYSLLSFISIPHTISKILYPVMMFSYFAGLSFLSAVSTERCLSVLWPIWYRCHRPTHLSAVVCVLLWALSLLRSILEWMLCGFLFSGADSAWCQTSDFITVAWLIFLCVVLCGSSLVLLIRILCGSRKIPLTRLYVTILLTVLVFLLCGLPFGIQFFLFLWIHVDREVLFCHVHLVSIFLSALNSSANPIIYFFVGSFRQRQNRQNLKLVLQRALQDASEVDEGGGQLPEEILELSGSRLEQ
Experimental: To identify novel antagonists of MrgprX1, a cell-based screening assay was established. […] Cells were treated with the indicated concentrations of CQ where the arrow indicates. (B) Summary of dose-response (mean ± S.E., n = 6). (C) Representative Fluo−4 fluorescence traces of MrgprX1 antagonist screening. Cells were treated with 30 μM of the test compounds for 10 min prior to treatment with 300 μM CQ.
Figure 2 Effect of berbamine and closantel on CQ- and ionomycin-induced increases in intracellular calcium levels: (A,B) Intracellular calcium levels were measured using Fluo−4 NW in HEK293T cells expressing MrgprX1. The cells were pretreated with the indicated concentrations of berbamine (BBM) and closantel (CLS) for 10 min prior to treatment with 300 μM CQ. (C) Summary of dose-response (mean ± S.E., n = 6). […] The cells were pretreated with the indicated concentrations of BBM and CLS for 10 min before treatment with ionomycin. (F) Summary of dose–response (mean ± S.E., n = 6).
Intracellular calcium levels were measured using a Fluo-4 NW calcium assay kit (Invitrogen, Carlsbad, CA) as per the manufacturer’s protocol in HEK293T and HT29 cells. Briefly, the cells were plated in a 96-well black-walled plate and incubated with 100 μL of assay buffer including Fluo-4 NW. […] Intracellular calcium increase was induced with the application of the indicated agonist. All modulators were dissolved in DMSO, and cells were treated with a final concentration of 1% DMSO.

[9] = test system: CQ-resistant strain of P. falciparum; parameters: method as in doi:10.1002/ddr.430300405; details: in vitro, compound alone; read-out: IC50 antimalaria effect, CQ-resistant strain; cited from earlier work
[10] = target: T4, histamine H1 receptor (H1R) (Homo sapiens, UniProt P35367); assay: Histamine-induced activation of H1R in H1R-expressing HEK293T cells (calcium); assay type: cell-based; details: 30 μM compound, 10 min prior to 100 μM histamine
T4 construct: expressed in transfected cells; host or cells: HEK293T
T4 sequence (P35367 whole entry, species assumed): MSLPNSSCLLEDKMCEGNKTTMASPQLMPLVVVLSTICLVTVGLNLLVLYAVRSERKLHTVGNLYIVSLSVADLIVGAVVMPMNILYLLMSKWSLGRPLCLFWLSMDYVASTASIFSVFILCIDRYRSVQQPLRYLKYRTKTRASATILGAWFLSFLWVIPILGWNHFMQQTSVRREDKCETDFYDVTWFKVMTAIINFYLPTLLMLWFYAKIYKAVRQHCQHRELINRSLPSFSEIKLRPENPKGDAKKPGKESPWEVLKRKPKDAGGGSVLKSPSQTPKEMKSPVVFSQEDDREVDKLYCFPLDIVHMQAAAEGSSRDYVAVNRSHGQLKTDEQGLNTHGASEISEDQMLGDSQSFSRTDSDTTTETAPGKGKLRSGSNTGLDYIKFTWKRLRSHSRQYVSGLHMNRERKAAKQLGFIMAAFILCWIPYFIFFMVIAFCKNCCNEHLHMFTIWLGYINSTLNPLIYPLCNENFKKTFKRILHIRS
Experimental: as §1, §2, §3

[11] = test system: HEK293T cells; assay: Ionomycin-induced increase in intracellular calcium levels in HEK293T cells; assay type: cell-based; details: 10 μM ionomycin, 10 min pretreatment
Experimental: To investigate whether berbamine and closantel affect calcium signaling pathways, we observed the effects of berbamine and closantel on CQ- and ionomycin-induced increases in intracellular calcium concentrations in HEK-MrgprX1 and HEK293T cells, respectively.
Figure 2 Effect of berbamine and closantel on CQ- and ionomycin-induced increases in intracellular calcium levels: (A,B) Intracellular calcium levels were measured using Fluo−4 NW in HEK293T cells expressing MrgprX1. The cells were pretreated with the indicated concentrations of berbamine (BBM) and closantel (CLS) for 10 min prior to treatment with 300 μM CQ. (C) Summary of dose-response (mean ± S.E., n = 6). (D,E) Intracellular calcium levels were increased with 10 μM ionomycin in HEK239T cells. The cells were pretreated with the indicated concentrations of BBM and CLS for 10 min before treatment with ionomycin. (F) Summary of dose–response (mean ± S.E., n = 6).
as §4

Structure (SMILES): CC=CC(=O)N(CC)c1ccccc1C (mixture of isomers) [crotamiton]
- IC50 [1]: 326 µM
- effect on histamine-induced itch [2]: inhibits
- effect on CQ-induced itch [3]: inhibits

Structure (SMILES): O=C1O[C@H]2[C@@H]3OC(=O)c4cc(O)c(O)c(O)c4-c4c(O)c(O)c5oc(=O)c6c(c(O)c(O)c7oc(=O)c4c5c76)-c4c(cc(O)c(O)c4O)C(=O)OC[C@H]3OC(O)[C@@H]2OC(=O)c2cc(O)c(O)c(O)c2-c2c1cc(O)c(O)c2O (mixture of isomers) [punicalagin, reference compound]
- effect on PAR2-AP-induced activation of PAR2 [4]: significantly blocked

Structure (SMILES): CCN(CC)CCCC(C)Nc1ccnc2cc(Cl)ccc12 (stereo not shown) [CQ, Chloroquine]
- time of peak ERK1/2 phosphorylation after treatment [5]: 10 min
- time of peak ERK1/2 phosphorylation after treatment [6]: 5 min
- EC50 [7]: 234 µM
- EC50 ([8]; HEK-MrgprX1 cells, Fluo-4, read-out: EC50 of increase in intracellular calcium levels (MrgprX1 activation)): 96 µM
- IC50 [9]: 0.203 ± 0.0707 µM

Structure (SMILES): CN1CCC(=C2c3ccccc3CCn3c(C=O)cnc32)CC1 [alcaftadine, reference compound]
- effect on histamine-induced activation of H1R [10]: significantly blocked

Structure (SMILES): Cc1cc(C(C#N)c2ccc(Cl)cc2)c(Cl)cc1NC(=O)c1cc(I)cc(I)c1O (stereo not shown) [closantel, reference compound]
- inhibition at 30 µM ([8]; HEK-293T, read-out: inhibition of the CQ-induced activation of MrgprX1 (screening)): > 90%
- IC50 ([8]; pretreated 10 min prior to 300 μM CQ, read-out: IC50 of inhibition of CQ-induced MrgprX1 activation): 3.6 µM
- effect on ionomycin-induced increase in intracellular calcium levels [11]: inhibited it in a dose-dependent manner
